Read-outs that look alike come from different tables or passages of the source.

This passage reports Ki results from patent publication US7049314B2, “Cyclopentyl indole derivatives” (Bristol-Myers Squibb Company, priority 2002, dated 2006).

Experiment [1] deals with T1, human serotonin transporters (Homo sapiens, UniProt P31645).
T1 construct: expressed in transfected cells
Put plainly: Serotonin Transporter Binding Assay ([3H]-citalopram displacement, HEK-hSERT cell membranes). As for the experimental part: HEK-293 cells that stably express human serotonin transporters (HEK-hSERT cells) were grown at 37° C. in 5% CO2 as a monolayer in medium consisting of EMEM supplemented with 10% fetal bovine serum and G418 sulfate (500 μg/mL). To prepare membranes for radioligand binding experiments, cells were rinsed twice with phosphate-buffered saline (138 mM NaCl, 4.1 mM KCl, 5.1 mM Na2PO4, 1.5 mM […], 11.1 mM glucose, pH 7.4). Cells were transferred from plates to polypropylene tubes (16×100 mm), centrifuged at 1,200×g for 5 min and were frozen at −80° C. until assay. Following centrifugation, pellets were resuspended by homogenization in buffer consisting of 50 mM Tris (pH 7.7 at 25° C.), 120 mM NaCl and 5 mM KCl and then centrifuged at 32,000×g for 10 min. Following centrifugation, supernatants were discarded and pellets were resuspended in buffer consisting of 50 mM Tris (pH 7.4 at 25° C.), 150 mM NaCl and 5 mM KCl. Membrane homogenates (200 μl/plate) were incubated with 1 nM [^3H]-citalopram (specific activity=85 Ci/mMol) and increasing concentrations of test compounds for 1 hr at 25° C. in a total volume of 250 μl. The assay buffer consisted of 50 mM Tris (pH 7.4 at 25° C.), 120 mM NaCl and 5 mM KCl (pH 7.4 with conc. HCl). Plates were incubated for 1 hr at 25° C., then filtered through 0.5% PEI treated Whatman GF/B filters using a Brandel cell harvester. Filters were washed three times with 3 mL of ice-cold tris wash buffer. Non-specific binding was defined with 10 μM fluoxetine. Amount of radioligand bound in the presence and absence of competitor was analyzed by plotting (−)log drug concentration versus the amount of radioligand specifically bound. The midpoint of the displacement curve (IC50, nM), signifies the potency. Ki values were calculated using the method of Cheng and Prusoff (1973).

The target in experiment [2] is T2, human norepinephrine transporters (Homo sapiens, UniProt P23975).
T2 construct: host or cells: MDCK cells (also 'HEK-hNET cells'), membrane homogenates
Put plainly: Norepinephrine Transporter Binding Assay ([3H]-nisoxetine displacement, hNET cell membranes). The settings on record: 2.7 nM [3H]-nisoxetine, 1 hr at 4° C., read-out: NE Reuptake (binding Ki). As for the experimental part:
MDCK cells that stably express human norepinephrine transporters (HEK-hNET cells) were supplied by Receptor Biology, Inc. Pellets were resuspended by homogenization in buffer consisting of 50 mM Tris (pH 7.4 at 25° C.), 120 mM NaCl and 5 mM KCl. Membrane homogenates (200 μl/well, 8 ug protein) were incubated with 2.7 nM [^3H]-nisoxetine (specific activity=80 Ci/mMol) and increasing concentrations of test compounds for 1 hr at 4° C. in a total volume of 250 μl. The assay buffer consisted of 50 mM Tris (pH 7.4 at 25° C.), 120 mM NaCl and 5 mM KCl (pH 7.4 with conc. HCl). Plates were incubated for 1 hr at 4° C., then filtered through 0.5% PEI treated Whatman GF/B filters using a Brandel cell harvester. Filters were washed three times with 3 mL of ice-cold tris wash buffer. Non-specific binding was defined with 10 μM desipramine. Amount of radioligand bound in the presence and absence of competitor was analyzed by plotting (−)log drug concentration versus the amount of radioligand specifically bound. The midpoint of the displacement curve (IC50, nM), signifies the potency. Ki values were calculated using the method of Cheng and Prusoff (1973).

[3] abbreviates: HEK-hSERT membranes, 1 nM [3H]-citalopram, 1 hr at 25° C., read-out: SERT (binding Ki).

T2 sequence (P23975 whole entry): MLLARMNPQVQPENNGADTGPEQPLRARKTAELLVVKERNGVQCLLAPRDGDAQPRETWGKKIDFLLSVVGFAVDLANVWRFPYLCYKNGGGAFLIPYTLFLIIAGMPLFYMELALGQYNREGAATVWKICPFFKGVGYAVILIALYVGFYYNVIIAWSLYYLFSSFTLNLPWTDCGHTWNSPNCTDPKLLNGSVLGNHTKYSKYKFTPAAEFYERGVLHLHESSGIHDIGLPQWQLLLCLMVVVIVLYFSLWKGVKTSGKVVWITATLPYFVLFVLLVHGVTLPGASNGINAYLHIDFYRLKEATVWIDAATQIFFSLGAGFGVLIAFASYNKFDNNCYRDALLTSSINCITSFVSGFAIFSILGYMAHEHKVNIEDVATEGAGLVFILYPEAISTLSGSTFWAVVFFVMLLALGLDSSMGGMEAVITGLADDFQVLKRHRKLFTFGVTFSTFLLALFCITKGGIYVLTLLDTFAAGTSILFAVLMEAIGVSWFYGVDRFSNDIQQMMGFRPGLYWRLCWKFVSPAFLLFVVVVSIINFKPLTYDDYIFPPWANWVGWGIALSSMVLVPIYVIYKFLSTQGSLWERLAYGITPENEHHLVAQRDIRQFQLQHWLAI
T1 sequence (P31645 whole entry): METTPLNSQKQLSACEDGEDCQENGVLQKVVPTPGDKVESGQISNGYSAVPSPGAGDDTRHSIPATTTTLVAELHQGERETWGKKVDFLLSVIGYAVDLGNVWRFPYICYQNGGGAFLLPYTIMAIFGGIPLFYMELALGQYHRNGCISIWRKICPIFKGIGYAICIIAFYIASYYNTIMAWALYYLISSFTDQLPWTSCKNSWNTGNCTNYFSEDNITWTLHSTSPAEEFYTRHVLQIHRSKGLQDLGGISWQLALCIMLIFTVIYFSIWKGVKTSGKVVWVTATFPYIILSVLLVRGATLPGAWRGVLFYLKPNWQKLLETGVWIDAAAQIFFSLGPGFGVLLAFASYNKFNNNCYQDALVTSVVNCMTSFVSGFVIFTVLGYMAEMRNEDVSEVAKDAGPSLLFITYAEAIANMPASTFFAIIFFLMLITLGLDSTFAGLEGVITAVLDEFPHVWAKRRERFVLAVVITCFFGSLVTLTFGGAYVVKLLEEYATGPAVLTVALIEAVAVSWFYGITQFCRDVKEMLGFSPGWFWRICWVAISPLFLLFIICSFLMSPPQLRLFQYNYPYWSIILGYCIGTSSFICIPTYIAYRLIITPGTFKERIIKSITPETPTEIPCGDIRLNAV

Take `Cn1cc(C2CCC(NCCc3ccccc3)C2)c2cc(C#N)ccc21` (stereo not shown) [Compound 20, 1-Methyl-3-(3-phenethylamino-cyclopentyl)-1H-indole-5-carbonitrile]: the Ki in experiment [1] (setting [3]) is 1 to 10 nM; in experiment [2], 100 to 1000 nM.
`CN(C)C1CCC(c2cn(C)c3ccc(C#N)cc23)C1` (stereo not shown) [Compound 21, 3-(3-Dimethylamino-cyclopentyl)-1-methyl-1H-indole-5-carbonitrile]: the Ki in experiment [1] was 1 to 10 nM; in experiment [2], more than 1000 nM.
`CCN(C)C1CCC(c2cn(C)c3ccc(C#N)cc23)C1` (stereo not shown) [Compound 22, 3-[3-(Ethyl-methyl-amino)-cyclopentyl]-1-methyl-1H-indole-5-carbonitrile]: the Ki in experiment [1] is 1 to 10 nM; in experiment [2], more than 1000 nM.
On to `CCN(CC)C1CCC(c2cn(C)c3ccc(C#N)cc23)C1` (stereo not shown) [Compound 23, 3-(3-Diethylamino-cyclopentyl)-1-methyl-1H-indole-5-carbonitrile], for which the Ki was less than 1 nM in experiment [1] and more than 1000 nM in experiment [2].
As for `Cn1cc(C2CCC(N3CCCC3)C2)c2cc(C#N)ccc21` (stereo not shown) [Compound 24, 1-Methyl-3-(3-pyrrolidin-1-yl-cyclopentyl)-1H-indole-5-carbonitrile], the Ki was 1 to 10 nM in experiment [1] and more than 1000 nM in experiment [2].
On to `Cn1cc(C2CCC(N3CCCCC3)C2)c2cc(C#N)ccc21` (stereo not shown) [Compound 25, 1-Methyl-3-(3-piperidin-1-yl-cyclopentyl)-1H-indole-5-carbonitrile], for which the inhibition constant Ki in experiment [1] (setting [3]) is less than 1 nM; in experiment [2], more than 1000 nM.
Take `Cn1cc(C2CCC(N3CCOCC3)C2)c2cc(C#N)ccc21` (stereo not shown) [Compound 26, 1-Methyl-3-(3-morpholin-4-yl-cyclopentyl)-1H-indole-5-carbonitrile]: the Ki is less than 1 nM in experiment [1] (setting [3]) and more than 1000 nM in experiment [2].
Take `CN(Cc1ccccc1)C1CCC(c2cn(C)c3ccc(C#N)cc23)C1` (stereo not shown) [Compound 27, 3-[3-(Benzyl-methyl-amino)-cyclopentyl]-1-methyl-1H-indole-5-carbonitrile]: the Ki in experiment [1] (setting [3]) was less than 1 nM; in experiment [2], more than 1000 nM.
Take `CN(CCc1ccccc1)C1CCC(c2cn(C)c3ccc(C#N)cc23)C1` (stereo not shown) [Compound 28, 1-Methyl-3-[3-(methyl-phenethyl-amino)-cyclopentyl]-1H-indole-5-carbonitrile]: the inhibition constant (Ki) lay within 1 to 10 nM in experiment [1] (setting [3]) and 100 to 1000 nM in experiment [2].
As to `CCCNC1CCC(c2cn(C)c3ccc(C#N)cc23)C1` (stereo not shown) [Compound 29, 1-Methyl-3-(3-propylamino-cyclopentyl)-1H-indole-5-carbonitrile], the Ki was less than 1 nM in experiment [1] and more than 1000 nM in experiment [2].
As for `CCCN(CCC)C1CCC(c2cn(C)c3ccc(C#N)cc23)C1` (stereo not shown) [Compound 30, 3-(3-Dipropylamino-cyclopentyl)-1-methyl-1H-indole-5-carbonitrile], the Ki in experiment [1] (setting [3]) is less than 1 nM; in experiment [2], more than 1000 nM.
For the compound `CCn1cc(C2CCC(N(C)Cc3ccccc3)C2)c2cc(C#N)ccc21` (stereo not shown) [Compound 31, 3-[3-(Benzyl-methyl-amino)-cyclopentyl]-1-ethyl-1H-indole-5-carbonitrile], the figures for the Ki in experiment [1] (setting [3]) and in experiment [2] were 1 to 10 nM and more than 1000 nM, respectively.
On to `CCn1cc(C2CCC(N(C)C)C2)c2cc(C#N)ccc21` (stereo not shown) [Compound 32, 3-(3-Dimethylamino-cyclopentyl)-1-ethyl-1H-indole-5-carbonitrile], for which the Ki is less than 1 nM in experiment [1] (setting [3]) and more than 1000 nM in experiment [2].
In the case of `CN(C)C1CCC(c2c[nH]c3ccc(F)cc23)C1` (stereo not shown) [Compound 33], the Ki in experiment [1] (setting [3]) is less than 1 nM; in experiment [2] it was more than 1000 nM.
With `CCN(C)C1CCC(c2c[nH]c3ccc(F)cc23)C1` (stereo not shown) [Compound 34, Ethyl-[3-(5-fluoro-1H-indol-3-yl)cyclopentyl]-methyl-amine], the Ki is 1 to 10 nM in experiment [1] and more than 1000 nM in experiment [2].
Regarding `CCN(CC)C1CCC(c2c[nH]c3ccc(F)cc23)C1` (stereo not shown) [Compound 35, Diethyl-[3-(5-fluoro-1H-indol-3-yl)-cyclopentyl]-amine], the results for the Ki in experiment [1] and in experiment [2] were 5 nM and more than 1000 nM, respectively.
In the same order, the values of `Fc1ccc2[nH]cc(C3CCC(N4CCCC4)C3)c2c1` (stereo not shown) [Compound 36] are 1 to 10 nM and more than 1000 nM.
